Assay results taken from US20060121449A1, “Method for selection of compounds which inhibit clonal cell growth and use thereof” (priority 2002, published 2006).
Entries after “also recorded” stand apart in the source; their conditions may differ.

What was measured:
[1] = tested on: polyoma virus transformed BHK21/c13 cells, clone S100T1; experiment: Clonal test: clonal growth of S100T1 cells in soft agar (Exp 2, 4, 6, 15, 16); assay type: cell-based, hamster
Procedure: The clonal test comprises: • 1. seeding cells in soft agar optionally containing growth factor(s); • 2. handling or incubation of special gels (e.g. ultra low gelling temperature agarose), including the production of cell density gradients. • 3. incubating in suitable temperature and atmosphere and; • 4. regular monitoring of the cells and development of clones.
The clonal test can be directed in fluid medium or in soft agar medium. Usually only transformed cells will form clones in soft agar.
After seeding and mixing, the tubes were placed in the refrigerator for about 1 hour to consolidate the ultra low melting point agarose.
120000 S100T1 cells of a polyoma virus transformed BHK21/c13 cell line, were seeded in 1 ml soft agar medium in Falcon 50 ml centrifuge tubes. […] On the top of the agar layer 0.5 ml fluid medium was added.
Agar cultures were prepared in wells of 24 well Falcon tissue culture plate. […] Insulin (Actrapid, Novo) was added in a concentration of 0.1 i.u./ml to BHK21/c13 cell cultures only.
The cells were all single cells. Each well received 32000 cells (Table 4). Plate: 24 wells Falcon tissue culture plate received a bottom layer composed as in Table 3:
The cells were all single cells.
The wells contained two layers, each of 0.3 ml agar.
The agarose was added to double distilled water and solved by heating in micro oven.

[2] = tested on: polyoma virus transformed BHK21/c13 cells, line S100T1; experiment: Collocation inhibition test: clonal growth in sparsely and densely seeded areas of a cell density gradient of S100T1 cells in soft agar (Exp 13, 17, 19-26); details: for Effect on clonal growth: Exp 25, 48 hours incubation; for Clonal growth, H high density area of cell gradient, High / Clonal growth, L low density area of cell gradient, High / Clonal growth, H high density area of cell gradient, Low / Clonal growth, L low density area of cell gradient, Low / Clonal growth, H high density area of cell gradient, Medium / Clonal growth, L low density area of cell gradient, Medium / Effect on cell cloning in soft agar: preliminary results; for Clonal growth, H high density area of cell gradient, High / Clonal growth, L low density area of cell gradient, High / Clonal growth, H high density area of cell gradient, Low / Clonal growth, L low density area of cell gradient, Low / Clonal growth, H high density area of cell gradient, Medium / Clonal growth, L low density area of cell gradient, Medium: Exp 13-18, 21-26; for Effect on clonal growth and toxicity: 117000 S100T1 cells/well; for Effect on cell cloning in soft agar: in words; for Significance: Exp 17 day 14;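 for Clonal growth, H high density area of cell gradient, High: grades rise with clonal growth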;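 for Clonal growth, H high density area of cell gradient, Low: grades rise with clonal growth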;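 for Clonal growth, H high density area of cell gradient, Medium: grades rise with clonal growth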;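 for Clonal growth, L low density area of cell gradient, High: grades rise with clonal growth and minus or plus-minus means none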;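 for Clonal growth, L low density area of cell gradient, Low: grades rise with clonal growth and minus or plus-minus means none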;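 for Clonal growth, L low density area of cell gradient, Medium: grades rise with clonal growth and minus or plus-minus means none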;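 for all read-outs here: soft agar cultures in 24-well plates with a cell density gradient in the top layer, compounds applied from DMSO stocks, clonal growth scored in sparse versus dense areas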
[3] = Exp 15, 32000 S100T1 cells/well
[4] = Experiment 25, H: area with high cell density, High concentration, after 48 hours incubation
[5] = Experiment 25, H: area with high cell density, Low concentration, after 48 hours incubation
[6] = Experiment 25, H: area with high cell density, Medium concentration, after 48 hours incubation
[7] = Experiment 25, L: area with low cell density, High concentration, after 48 hours incubation
[8] = Experiment 25, L: area with low cell density, Low concentration, after 48 hours incubation
[9] = Experiment 25, L: area with low cell density, Medium concentration, after 48 hours incubation
[10] = 4-OH-OPB analogues, S100T1 in soft agar, high concentration
[11] = 4-OH-OPB analogues, S100T1 in soft agar, low concentration
[12] = 4-OH-OPB analogues, S100T1 in soft agar, medium concentration

## O=C1NC(=O)C(c2ccccc2)(c2ccccc2)N1 [Diphenhydantoin]
[1]; [3]
  Effect on clonal growth at 10-100 μM: did not inhibit clonal growth significantly

## Somatotropin: growth hormone tested for clonal stimulation
[2]
  Effect on clonal growth: seemed to create some large colonies
[2]; [4]
  Clonal growth: ++
[2]; [5]
  Clonal growth: ++(+)
[2]; [6]
  Clonal growth: ++(+)
[2]; [7]
  Clonal growth: ++
[2]; [8]
  Clonal growth: ++(+)
[2]; [9]
  Clonal growth: ++(+)
[2]; high concentration
  Clonal growth, H high density area of cell gradient, High: ++
  Clonal growth, L low density area of cell gradient, High: ++
[2]; low concentration
  Clonal growth, H high density area of cell gradient, Low: ++(+)
  Clonal growth, L low density area of cell gradient, Low: ++(+)
[2]; medium concentration
  Clonal growth, H high density area of cell gradient, Medium: ++(+)
  Clonal growth, L low density area of cell gradient, Medium: ++(+)

## Nc1ccn([C@@H]2O[C@H](CO)[C@@H](O)[C@@H]2O)c(=O)n1 [Cytarabin, reference compound]
[2]; Exp 21
  Effect on clonal growth and toxicity: significant toxic effect at dosage that showed significant inhibition of clonal growth; also recorded: incomplete inhibition and signs of toxicity
[2]; Exp 21, listed as Cytarabine
  Effect on clonal growth and toxicity: incomplete inhibition of clonal growth and significant toxicity
[2]; Exp 21, 117000 cells per well, Low concentration (see figure), H: area with high cell density
  Clonal growth: ++
[2]; Exp 21, High concentration, H: area with high cell density
  Clonal growth: (+)
[2]; Exp 21, High concentration, L: area with low cell density
  Clonal growth: (+)
[2]; Exp 21, Low concentration, L: area with low cell density
  Clonal growth: +
[2]; Exp 21, Medium concentration, H: area with high cell density
  Clonal growth: ++
[2]; Exp 21, Medium concentration, L: area with low cell density
  Clonal growth: +
[2]; high concentration
  Clonal growth, H high density area of cell gradient, High: (+)
  Clonal growth, L low density area of cell gradient, High: (+)
[2]; low concentration
  Clonal growth, H high density area of cell gradient, Low: ++
  Clonal growth, L low density area of cell gradient, Low: +
[2]; medium concentration
  Clonal growth, H high density area of cell gradient, Medium: ++
  Clonal growth, L low density area of cell gradient, Medium: +
[2]
  Effect on cell cloning in soft agar: Incomplete inhibition of clonal growth

## CCCCC1(O)C(=O)N(c2ccccc2)N(c2ccccc2)C1=O [#11, 4-butyl-4-hydoxy-1,2-diphenyl-3,5-pyrazolidnedione]
[2]; [10]
  Clonal growth, H: high density area of cell gradient, High: ++(+)
  Clonal growth, L: low density area of cell gradient, High: ++
[2]; [11]
  Clonal growth, H: high density area of cell gradient, Low: ++
  Clonal growth, L: low density area of cell gradient, Low: ++
[2]; [12]
  Clonal growth, H: high density area of cell gradient, Medium: ++
  Clonal growth, L: low density area of cell gradient, Medium: ++
[2]
  Effect on clonal growth: did not show any growth inhibition; also recorded: high concentration might stimulate growth in densely seeded areas
[2]; [4]
  Clonal growth: ++(+)
[2]; [5]
  Clonal growth: ++
[2]; [6]
  Clonal growth: ++
[2]; [7]
  Clonal growth: ++
[2]; [8]
  Clonal growth: ++
[2]; [9]
  Clonal growth: ++
[2]; Summary Table 3 of analogue tests (experiments 22-25), H (high cell density), High concentration
  Clonal growth: ++(+)
[2]; Summary Table 3 of analogue tests (experiments 22-25), H (high cell density), Low concentration
  Clonal growth: ++
[2]; Summary Table 3 of analogue tests (experiments 22-25), H (high cell density), Medium concentration
  Clonal growth: ++
[2]; Summary Table 3 of analogue tests (experiments 22-25), L (low cell density), High concentration
  Clonal growth: ++
[2]; Summary Table 3 of analogue tests (experiments 22-25), L (low cell density), Low concentration
  Clonal growth: ++
[2]; Summary Table 3 of analogue tests (experiments 22-25), L (low cell density), Medium concentration
  Clonal growth: ++
[2]; sparsely seeded areas while densely seeded areas of the same culture showed significant growth
  Clonal inhibition by 4-OH-OPB analogues, summary of Exp 22-25: possible stimulation at high concentration

## COc1c(C)c2c(c(O)c1C/C=C(\C)CCC(=O)O)C(=O)OC2 [Mycophenolic ac]
[2]; Exp 19, high concentration, H: high cell density part of the gradient
  Clonal growth after 48 hours incubation: (+)
[2]; Exp 19, high concentration, L: low cell density part of the gradient
  Clonal growth after 48 hours incubation: (+)
[2]; Exp 19, low concentration (exact conc. only in figure), H: high cell density part of the gradient
  Clonal growth after 48 hours incubation: (+)
[2]; Exp 19, low concentration, L: low cell density part of the gradient
  Clonal growth after 48 hours incubation: (+)
[2]; Exp 19, medium concentration, H: high cell density part of the gradient
  Clonal growth after 48 hours incubation: (+)
[2]; Exp 19, medium concentration, L: low cell density part of the gradient
  Clonal growth after 48 hours incubation: (+)

## COc1c(C)c2c(c(O)c1C/C=C(\C)CCC(=O)O)C(=O)OC2 [Mycophenolic acid, reference compound]
[2]; high concentration
  Clonal growth, H high density area of cell gradient, High: (+)
  Clonal growth, L low density area of cell gradient, High: (+)
[2]; low concentration
  Clonal growth, H high density area of cell gradient, Low: (+)
  Clonal growth, L low density area of cell gradient, Low: (+)
[2]; medium concentration
  Clonal growth, H high density area of cell gradient, Medium: (+)
  Clonal growth, L low density area of cell gradient, Medium: (+)
[2]
  Effect on cell cloning in soft agar: Less growth in both high and low

## C[S+](C)[O-] [DMSO]
[2]; Exp 17
  Effect on formation of clones at 4.7%: inhibited formation of clones, but not completely
  Effect on formation of clones at 29.2 μl/700 μl or 4%: inhibited formation of clones, but not completely
[2]; Exp 17, a: close to densely seeded cell areas, Low: Colchicine 0.1, Podophyllotoxin 0.3, Etoposide 20, 4-OH—OPB 0.67 μM in wells, DMSO 1.16 μl
  Clonal growth, results read on the day 14: ++
[2]; Exp 17, a: close to densely seeded cell areas, Medium: Colchicine 0.3, Podophyllotoxin 0.9, Etoposide 60, 4-OH—OPB 2 μM in wells, DMSO 6.8 μl
  Clonal growth, results read on the day 14: ++
[2]; Exp 17, b: sparsely seeded areas in the same agar culture, Low: Colchicine 0.1, Podophyllotoxin 0.3, Etoposide 20, 4-OH—OPB 0.67 μM in wells, DMSO 1.16 μl
  Clonal growth, results read on the day 14: ++
[2]; Exp 17, soft agar cultures of S100T1
  Concentration up to which growth was approximately unaffected: up to 1%
[2]; Exp 19
  Growth inhibition at concentrations administered along with the test substances: did not show growth inhibition
[2]; a: close to densely seeded cell areas, High: Colchicine 1, Podophyllotoxin 3, Etoposide 200, 4-OH—OPB 6.7 μM in wells, DMSO 29.2 μl
  Significance: Probably
[2]; a: close to densely seeded cell areas, Low: Colchicine 0.1, Podophyllotoxin 0.3, Etoposide 20, 4-OH—OPB 0.67 μM in wells, DMSO 1.16 μl
  Significance: No
[2]; a: close to densely seeded cell areas, Medium: Colchicine 0.3, Podophyllotoxin 0.9, Etoposide 60, 4-OH—OPB 2 μM in wells, DMSO 6.8 μl
  Significance: No
[2]; b: sparsely seeded areas, High: Colchicine 1, Podophyllotoxin 3, Etoposide 200, 4-OH—OPB 6.7 μM in wells, DMSO 29.2 μl
  Significance: Yes
[2]; b: sparsely seeded areas, Low: Colchicine 0.1, Podophyllotoxin 0.3, Etoposide 20, 4-OH—OPB 0.67 μM in wells, DMSO 1.16 μl
  Significance: No
[2]; b: sparsely seeded areas, Medium: Colchicine 0.3, Podophyllotoxin 0.9, Etoposide 60, 4-OH—OPB 2 μM in wells, DMSO 6.8 μl
  Significance: No

## CC(C)Cc1ccc(C(C)C(=O)O)cc1 (stereo not shown) [Ibuprofen]
[1]; [3]
  Effect on clonal growth at 100 μM: insignificant inhibition
[1]; Exp 16, read after 14 days, Ibuprofen No 8, ca. 223 μM
  Significance of results: possible
[1]; Exp 16 day 14, Ibuprofen No 8, 215 μM
  Significance: possible
[1]; Exp 16 day 14, Ibuprofen No 8, 215 μM in wells
  Growth: (+)
[1]; Exp 16 day 14, Ibuprofen No 8, 464 μM in wells
  Growth: (+))
[1]; Exp 16 day 14, Ibuprofen No 8, 464 μM, doubtful because the solvent DMSO might be inhibiting
  Significance: doubtful*
[1]; Exp 16 day 21, Ibuprofen No 8, 215 μM
  Significance: probable
[1]; Exp 16 day 21, Ibuprofen No 8, 215 μM in wells
  Growth: (+))
[1]; Exp 16 day 21, Ibuprofen No 8, 464 μM in wells
  Growth: (+))
[1]; Exp 16 day 21, Ibuprofen No 8, 464 μM, *see conclusion (DMSO)
  Significance: doubtful*
[1]; S100T1 in soft agar
  Anti-clonal effect, summary of Exp 15: showed possible clonal inhibition at low
  Anti-clonal effect, summary of Exp 16: Ibuprofen and Naproxen possibly inhibited and Acetyl

## CN(Cc1cnc2nc(N)nc(N)c2n1)c1ccc(C(=O)N[C@@H](CCC(=O)O)C(=O)O)cc1 [methotrexate, Methotrexate, reference compound]
[2]; Exp 23, 180000 S100T1 cells/well
  Effect on growth: did not show significant growth inhibition at all
[2]; Experiment 23, A (area with high cell density), High concentration, 48 hours
  Clonal growth: +(+)
[2]; Experiment 23, A (area with high cell density), Low concentration, 48 hours
  Clonal growth: ++
[2]; Experiment 23, A (area with high cell density), Medium concentration, 48 hours
  Clonal growth: ++
[2]; Experiment 23, B (area with low cell density), High concentration, 48 hours
  Clonal growth: +
[2]; Experiment 23, B (area with low cell density), Low concentration, 48 hours
  Clonal growth: +
[2]; Experiment 23, B (area with low cell density), Medium concentration, 48 hours
  Clonal growth: +(+)
